Results from ChEMBL document CHEMBL1221291, “Studies on the structure-activity relationship of 1,3,3,4-tetra-substituted pyrrolidine embodied CCR5 receptor antagonists. Part 2: Discovery of highly potent anti-HIV agents” (Bioorg Med Chem Lett, 2010).

Assays:
[1] = test system: Human immunodeficiency virus 1; test: Antiviral activity against R5 tropic HIV1 BaL infected in human PBMC; assay type: functional, organism-based; conditions: Human immunodeficiency virus 1, BaL
[2] = target: C-C chemokine receptor type 5 (Homo sapiens, UniProt P51681); test: Inhibition of human CCR5 expressed in CHO cells assessed as inhibition of RANTES-stimulated [35S]GTPgammaS binding; assay type: functional, cell-based
Chain of C-C chemokine receptor type 5 (P51681 whole entry): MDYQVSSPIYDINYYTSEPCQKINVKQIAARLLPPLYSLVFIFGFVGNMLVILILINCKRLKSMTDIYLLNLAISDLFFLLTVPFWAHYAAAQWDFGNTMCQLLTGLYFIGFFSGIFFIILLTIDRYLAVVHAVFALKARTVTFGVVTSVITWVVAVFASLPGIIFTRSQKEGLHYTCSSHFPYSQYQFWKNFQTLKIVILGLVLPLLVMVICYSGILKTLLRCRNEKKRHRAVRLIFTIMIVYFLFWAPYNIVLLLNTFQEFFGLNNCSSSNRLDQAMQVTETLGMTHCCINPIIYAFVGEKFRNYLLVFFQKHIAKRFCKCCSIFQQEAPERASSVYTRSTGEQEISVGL

[3] = Cytotoxicity against human PBMC; assay type: cell-based
[4] = target: hERG (KCNH2) (Homo sapiens, UniProt Q12809); test: Inhibition of human ERG at 1 uM
Chain of hERG (KCNH2) (Q12809 whole entry): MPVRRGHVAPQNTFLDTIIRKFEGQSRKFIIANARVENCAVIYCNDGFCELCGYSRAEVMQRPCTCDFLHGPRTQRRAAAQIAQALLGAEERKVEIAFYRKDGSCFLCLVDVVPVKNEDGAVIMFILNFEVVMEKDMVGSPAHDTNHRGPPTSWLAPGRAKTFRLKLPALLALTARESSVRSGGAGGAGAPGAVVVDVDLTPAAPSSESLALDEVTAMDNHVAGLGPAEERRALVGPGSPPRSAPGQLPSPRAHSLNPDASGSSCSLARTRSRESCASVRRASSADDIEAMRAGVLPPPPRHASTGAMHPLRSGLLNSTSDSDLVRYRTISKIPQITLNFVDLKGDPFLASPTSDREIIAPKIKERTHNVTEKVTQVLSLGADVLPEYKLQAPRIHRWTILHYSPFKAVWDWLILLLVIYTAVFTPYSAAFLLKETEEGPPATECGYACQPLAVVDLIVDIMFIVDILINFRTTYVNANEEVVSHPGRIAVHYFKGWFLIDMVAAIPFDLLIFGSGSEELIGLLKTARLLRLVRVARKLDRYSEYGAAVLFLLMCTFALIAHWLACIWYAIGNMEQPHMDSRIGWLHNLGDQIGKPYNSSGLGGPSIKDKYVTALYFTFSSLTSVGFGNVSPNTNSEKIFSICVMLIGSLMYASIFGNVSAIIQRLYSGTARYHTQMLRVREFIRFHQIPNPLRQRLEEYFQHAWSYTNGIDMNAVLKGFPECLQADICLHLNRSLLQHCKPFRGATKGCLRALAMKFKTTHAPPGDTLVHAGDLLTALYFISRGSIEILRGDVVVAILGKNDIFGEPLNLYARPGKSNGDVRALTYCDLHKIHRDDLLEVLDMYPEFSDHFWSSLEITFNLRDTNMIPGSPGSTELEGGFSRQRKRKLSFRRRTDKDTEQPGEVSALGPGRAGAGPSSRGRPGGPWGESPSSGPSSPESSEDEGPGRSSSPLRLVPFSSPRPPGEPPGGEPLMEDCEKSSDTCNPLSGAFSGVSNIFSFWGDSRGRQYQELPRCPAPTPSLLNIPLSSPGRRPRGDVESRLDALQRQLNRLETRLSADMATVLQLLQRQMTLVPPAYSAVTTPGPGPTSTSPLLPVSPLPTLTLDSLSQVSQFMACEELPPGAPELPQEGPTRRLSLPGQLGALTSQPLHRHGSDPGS

SMILES | EC50 [1] [nM] | IC50 [2] [nM] | CC50 [3] [nM] | inhibition at 1 µM [4] [%]
C=CCN(C(=O)OCc1ccc([N+](=O)[O-])cc1)C1CCN(C[C@H]2CN(C(=O)C3CCCC3)C[C@]2(O)c2ccc(OC)cc2)CC1 | > 100 | 318 | – | –
C=CCN(C(=O)OCc1ccc([N+](=O)[O-])cc1)C1CCN(C[C@H]2CN(C(=O)C3CCCC3)C[C@]2(O)c2ccc(F)cc2)CC1 | > 100 | 30 | – | –
C=CCN(C(=O)OCc1ccc([N+](=O)[O-])cc1)C1CCN(C[C@H]2CN(C(=O)C3CCCC3)C[C@]2(O)c2cccc(F)c2)CC1 | < 0.4 | 8.85 | – | –
C=CCN(C(=O)NCc1ccc(C(F)(F)F)cc1)C1CCN(C[C@H]2CN(C(=O)C3CCCC3)C[C@]2(O)c2ccc(F)cc2)CC1 | 20 | 38.3 | – | –
C=CCN(C(=O)NCc1ccc(C(F)(F)F)cc1)C1CCN(C[C@H]2CN(C(=O)C3CCCC3)C[C@]2(O)c2cccc(F)c2)CC1 | 6 | 1.38 | – | –
C=CCN(C(=O)Cc1ccc(S(=O)(=O)NC)cc1)C1CCN(C[C@H]2CN(C(=O)C3CCCC3)C[C@]2(O)c2ccc(F)cc2)CC1 | > 100 | 11.2 | – | –
C=CCN(C(=O)Cc1ccc(S(=O)(=O)NC)cc1)C1CCN(C[C@H]2CN(C(=O)C3CCCC3)C[C@]2(O)c2cccc(F)c2)CC1 | 4.5 | 2.98 | – | –
C=CCN(C(=O)NCc1ccc(C(F)(F)F)cc1)[C@H]1C[C@H]2CC[C@@H](C1)N2C[C@H]1CN(C(=O)C2CCCC2)C[C@]1(O)c1cccc(F)c1 | < 0.005 | 6.77 | 12500 | 89.5
C=CCN(C(=O)NCc1ccc(S(=O)(=O)N(C)C)cc1)[C@H]1C[C@H]2CC[C@@H](C1)N2C[C@H]1CN(C(=O)C2CCCC2)C[C@]1(O)c1cccc(F)c1 | 0.0055 | 11.4 | 55000 | 31.3
C=CCN(C(=O)NCc1ccc(F)cc1)[C@H]1C[C@H]2CC[C@@H](C1)N2C[C@H]1CN(C(=O)C2CCCC2)C[C@]1(O)c1cccc(F)c1 | 1.75 | 30 | 42000 | –
C=CCN(C(=O)NCc1ccc(C(F)(F)F)cc1)[C@@H]1C[C@H]2CC[C@@H](C1)N2C[C@H]1CN(C(=O)C2CCCC2)C[C@]1(O)c1cccc(F)c1 | > 100 | 14.3 | 103000 | 88.6
C=CCN(C(=O)OCc1ccc([N+](=O)[O-])cc1)C1CCN(C[C@H]2CN(C(=O)C3CCCC3)C[C@]2(O)c2ccccc2)CC1 [NIFEVIROC] | < 0.4 | – | – | –
